Nine molecules from US20250171414A1, “COMPOUND SERVING AS MASP-2 INHIBITOR, PHARMACEUTICAL COMPOSITION, PREPARATION METHOD THEREFOR, AND USE THEREOF” (WUHAN CREATERNA SCIENCE AND TECHNOLOGY CO., LTD., priority 2022, published 2025) can be followed below.

By IC50 is commonly meant the concentration at which inhibition is half-maximal. For orientation: Cmax means the highest concentration seen after dosing. One may read the AUC(0-t) as the area under the concentration-time curve up to a stated or last time point. What is called half-life is the time needed for the level to fall by half in the phase considered. The low end stands for rapid decline, the high end for slow decline.

Read-outs that look alike come from different tables or passages of the source. Some results are limits rather than exact numbers.

The target of series [1] is human α-thrombin (Homo sapiens (Human), UniProt P00734). In words: Inhibition of thrombin, fluorescent peptide substrate Boc-VPR-AMC. It is filed as biochemical. Here is the method: For thrombin assay, a fluorescent peptide substrate (Boc-VPR-AMC (R&D Systems)) was used and reacted in a buffer containing 20 mM Hepes (pH 7.4), 140 mM NaCl, and 0.1% Tween 20 at room temperature. Assay parameters were adjusted to make the assay linearly related to time, enzyme, and substrate concentration.
The assay method for thrombin is as follows. Test compounds were each serially diluted with a buffer, and then 10 μL of compound solution was transferred to an assay plate. A buffer was added to the assay plate at 10 μL/well, and then a thrombin (human α-thrombin (BioPharm Lab.)) solution was added at 15 μL/well. A Boc-VPR-AMC substrate solution was added at 15 μL/well, and the resulting mixture was incubated for 60 min at 25° C. A terminating solution (0.1 M acetic acid) was added at 15 μL/well, and detection was performed within 30 min by using a SpectraMax i3x microplate reader.

For series [2], the system named is lectin pathway (MBL) in human serum. In words: Inhibition of activity of lectin pathway (MBL) in human serum (WIESLAB Complement System MBL Pathway kit). It is filed as biochemical. The settings on record: 1% human serum. The protocol:
The inhibition of the activity of the lectin pathway (MBL) in human serum by compounds was detected using a WIESLAB® Complement System MBL Pathway kit (SVAR, COMPLMP320). Test compounds were each serially diluted in a buffer (Diluent MP), and 1% human serum was incubated with the diluted compound solution for 15 min at room temperature. 100 μL of the mixture was added to a microplate and incubated at 37° C. for 60 min. The liquid in the wells was discarded, and the microplate was washed three times with a washing solution. A Conjugate antibody solution was added at 100 μL/well, and the resulting mixture was incubated for 30 min at 25° C. The liquid in the wells was discarded, and the microplate was washed three times with a washing solution; a substrate solution was added at 100 μL/well, and the resulting mixture was incubated for 30 min at 25° C.; the terminator was added at 50 μL/well, and the absorbance at 405 nm was detected within 30 min by using a microplate reader.

A short description of series [3]: In vivo pharmacokinetic study in SD rats. The settings on record: clear. The protocol:
After adaptive feeding, the SPF SD rats were each subjected to a single administration of 1 mg/kg or 3 mg/kg of the compound of the present disclosure intragastrically or by tail vein bolus injection. Plasma was collected at specific time points after administration, and the concentration of the compound in plasma was detected by LC-MS/MS (AB Sciex Qtrap 4500).

Setting [4] is: Sprague-Dawley (SD), rat, plasma, 1 mg/kg, IV, not fasting.
Setting [5] is: Sprague-Dawley (SD), rat, plasma, 1 mg/kg, IV, not fasting, read-out: Cmax.
[6] abbreviates: Sprague-Dawley (SD), rat, plasma, 1 mg/kg, PO, fasting.
Where [7] appears, read: Sprague-Dawley (SD), rat, plasma, 1 mg/kg, PO, fasting, read-out: Cmax.

Take `Nc1ccc2c(n1)CCC2NC(=O)[C@@H]1CCN1C(=O)[C@H]1C[C@H](Cc2ccc(F)cc2)CN1` (stereo partly drawn) [Compound L030, (2S)—N-(2-amino-6,7-dihydro-5H-cyclopenta[b]pyridin-5-yl)-1-((2R,4S)-4-(4-fluorobenzyl)pyrrolidine-2-carbonyl) azetidine-2-carboxamide]: the IC50 in series [1] is 10.3 µM; in series [2], 1.85 nM.
For `Nc1ccc2c(n1)CCC2NC(=O)[C@@H]1CCN1C(=O)[C@H]1C[C@H](Cc2ccc(-c3ccccc3)cc2)CN1` (stereo partly drawn) [Compound L027, (2S)-1-(2R,4S)-4-([1,1′-biphenyl]-4-(4-methyl)pyrrolidine-2-carbonyl)-N-(2-amino-6,7-dihydro-5H-cyclopenta[b]pyridin-5-yl) azetidine-2-carboxamide], the IC50 stood at 11.9 µM in series [1] and 1.43 nM in series [2].
The like results for `Nc1ccc2c(n1)CCC2NC(=O)[C@@H]1CCCN1C(=O)[C@H]1C[C@H](Cc2ccc(-c3ccccc3)cc2)CN1` (stereo partly drawn) [Compound L028, (2S)-1-(2R,4S)-4-([1,1′-biphenyl]-4-(4-ylmethyl)pyrrolidine-2-carbonyl)-N-(2-amino-6,7-dihydro-5H-cyclopenta[b]pyridin-5-yl) pyrrolidine-2-carboxamide] were, in that order, 16.6 µM and 4.09 nM.
The molecule `C[C@H](NC(=O)[C@H]1C[C@H](Cc2ccc(F)cc2)CN1)C(=O)NC1CCc2nc(N)ccc21` (stereo partly drawn) [Compound L001, (2R,4S)—N-((2S)-1-((2-amino-6,7-dihydro-5H-cyclopenta[b]pyridin-5-yl)amino)-1-oxopropan-2-yl)-4-(4-fluorobenzyl) pyrrolidine-2-carboxamide] yielded an IC50 in series [1] above 50 µM. Besides, in series [3] (1 mg/kg, IV, not fasting), the AUClast amounted to 54837 ± 1386 ng·h/mL, the highest concentration (Cmax) stood at 7297 ± 154 ng/mL and the T1/2 turned out to be 31.1 ± 1.27 h. In series [3] (1 mg/kg, PO, fasting), this molecule returned an AUClast of 9822 ± 108 ng·h/mL, a maximum concentration (Cmax) of 1483 ± 41.0 ng/mL and a T1/2 of 10.1 h. The same molecule displayed an IC50 in series [2] of 2.67 nM.
Regarding `C[C@H](NC(=O)[C@H]1C[C@H](Cc2ccc(F)c(Cl)c2)CN1)C(=O)NC1CCc2nc(N)ccc21` (stereo partly drawn) [Compound L012, (2R,4S)—N-((2S)-1-((2-amino-6,7-dihydro-5H-cyclopenta[b]pyridin-5-yl)amino)-1-oxopropan-2-yl)-4-(3-chloro-4-fluorobenzyl) pyrrolidine-2-carboxamide], in series [3] (1 mg/kg, IV, not fasting), the AUClast turned out to be 97054 ± 1914 ng·h/mL, the Cmax is 26933 ± 1167 ng/mL and the T1/2 worked out at 12.0 ± 3.72 h. In series [3] (1 mg/kg, PO, fasting), this molecule returned an AUClast of 11618 ± 919 ng·h/mL, a peak concentration (Cmax) of 1777 ± 98.2 ng/mL and a T1/2 of 12.7 h. Further, inhibition in series [2] was half-maximal at 4.06 nM (IC50).
With `C[C@H](NC(=O)[C@H]1C[C@H](Cc2ccc(-c3ccccc3)cc2)CN1)C(=O)NC1CCc2nc(N)ccc21` (stereo partly drawn) [Compound L002, (2R,4S)-4-([1,1′-biphenyl]-4-ylmethyl)-N-((2S)-1-((2-amino-6,7-dihydro-5H-cyclopenta[b]pyridin-5-yl)amino)-1-oxopropan-2-yl) pyrrolidine-2-carboxamide], the concentration for half-maximal inhibition (IC50) was above 50 µM in series [1] and 2.48 nM in series [2].
As to `C[C@H](NC(=O)[C@@H]1C=C(c2ccc(F)c(F)c2)CCN1)C(=O)N[C@@H]1CCc2nc(N)ccc21` (single isomer, unassigned) [Compound L069-IS-02], the AUC(0-t) in series [3] (setting [4]) worked out at 20000 ± 3840 ng·h/mL; in series [3] (setting [6]) it was 6930 ± 968 ng·h/mL. Besides, the values for the half-life in series [3] (setting [4]) and in series [3] (setting [6]) were 203 ± 10.2 min and 202 min, respectively. For the same molecule, the Cmax in series [3] (setting [5]) was found to be 15700 ± 1130 ng/mL; in series [3] (setting [7]), 1190 ± 162 ng/mL. Besides, the half-inhibitory concentration (IC50) in series [2] was determined as 17.4 nM.
As to `C[C@H](NC(=O)[C@H]1C=C(c2cccc(F)c2)CCN1)C(=O)N[C@@H]1CCc2nc(N)ccc21` [Compound L083, (R)—N—((S)-1-(((R)-2-amino-6,7-dihydro-5H-cyclopenta[b]pyridin-5-yl)amino)-1-oxopropan-2-yl)-4-(3-fluorophenyl)-1,2,5,6-tetrahydropyridine-2-carboxamide], the exposure AUC(0-t) was 16400 ± 936 ng·h/mL in series [3] (setting [4]) and 3360 ± 778 ng·h/mL in series [3] (setting [6]). Further, the half-life is 163 ± 13.8 min in series [3] (setting [4]) and 178 ± 4.2 min in series [3] (setting [6]). For the same molecule, the Cmax in series [3] (setting [5]) was 18000 ± 850 ng/mL; in series [3] (setting [7]) it was 1090 ± 295 ng/mL. Also, in series [2], the IC50 is 10.6 nM.
For `C[C@H](NC(=O)[C@H]1C[C@H](Cc2ccc(F)cc2)CN1)C(=O)N[C@@H]1CCc2nc(N)ccc21` [Compound L001-IS-01, (2R,4S)—N—((S)-1-(((R)-2-amino-6,7-dihydro-5H-cyclopenta[b]pyridin-5-yl)amino)-1-oxopropan-2-yl)-4-(4-fluorobenzyl) pyrrolidine-2-carboxamide], the half-maximal inhibitory concentration (IC50) is 27.4 µM in series [1] and 0.52 nM in series [2]. Also, the AUClast in series [3] (1 mg/kg, IV, not fasting) came to 299766 ± 11465 ng·h/mL; in series [3] (3 mg/kg, PO, fasting), 188265 ± 20044 ng·h/mL. The peak concentration (Cmax) in series [3] (1 mg/kg, IV, not fasting) was found to be 23267 ± 1538 ng/mL; in series [3] (3 mg/kg, PO, fasting), 6070 ± 914 ng/mL. Besides, the T1/2 was found to be 42.4 ± 3.40 h in series [3] (1 mg/kg, IV, not fasting) and 43.9 ± 8.44 h in series [3] (3 mg/kg, PO, fasting).
